In patent publication US20210040089A1, “KRAS MUTANT PROTEIN INHIBITORS” (Jacobio Pharmaceuticals Co., Ltd., priority 2019, published 2021) one finds IC50 data, which are given here for 17 compounds.

Each structure is given as a SMILES string. Some results are limits rather than exact numbers.

Assay [1] relates to Phospho-ERK1/2(THR202/TYR204) in NCI-H358 cells express KRAS G12C. The assay is described as follows: Phospho-ERK1/2(THR202/TYR204) HTRF assay. Format: cell-based. As to conditions: Homo sapiens; NCI-H358, 2 hours incubation; read-out: p-ERK inhibition in NCI-H358 IC50. The method, then:
NCI-H358 cells express KRAS G12C were cultured in RPMI 1640 medium (Gibco) containing 10% fetal bovine serum (Gibco). Cells in culture medium were plated in 96-well plates at a concentration of 40,000 cells/well and allowed to attach overnight. The next day, culture medium was removed and added compounds diluted in assay medium (RPMI 1640, 0.1% EFBS). After 2 hours incubation in a 37° C./5% CO2 cell incubator, the assay medium was removed, then 50 μL of 1× supplemented lysis buffer (Cisbio) was added and the plates were incubated at 25° C. for 45 min with shaking. 10 μL of cell lysates from the 96-well plates were transferred to a 384-well plate (Greiner) containing 2.5 µL/well HTRF® pre-mixed antibodies (Cisbio 64AERPEH).
Incubate 4 hours at 25° C. and then read HTRF signals on Tecan Spark multimode microplate reader. The data were analyzed using a 4-parameter logistic model to calculate IC50 values.
Background: In TR-FRET formats the signal depends on donor and acceptor labels being close together.

The next assay concerns the target T1, KRAS G12C (Homo sapiens, UniProt P01116, G12C).
T1 construct: HIS-KRAS (G12C, aa 2-185, Sino biological); purchased Sino biological
The assay is described as follows: SOS1 catalyzed nucleotide exchange assay (TR-FRET). Format: biochemical. The conditions noted are these: GDP-loaded HIS-KRAS(G12C), 1 hour pre-incubation with compound. As for the experimental part:
1. SOS1 Catalyzed Nucleotide Exchange Assay
HIS-KRAS (G12C, aa 2-185, Sino biological) was diluted to […] EDTA buffer (20 mM HEPES, pH 7.4, 50 mM NaCl, 10 mM EDA, 0.01% (v/v) Tween-20) and incubated for 30 min at 25° C. The EDTA pretreated HIS-KRAS(G12C) was diluted to 12 nM in assay buffer (25 mM HEPES, pH 7.4, 120 mM NaCl, 5 mM MgCl2, 1 mM DTI, 0.01% (v/v) Tween 20, 0.1% (w/v) BSA) containing 120 nM GDP(Sigma) and Mab Anti 6HIS-Tb cryptate Gold(Cisbio) and incubated for 1 hour at 25° C. to prepare GDP-loaded HIS-KRAS(G12C). The GDP-loaded HIS-KRAS(G12C) was pre-incubation with diluted compounds in a 384-well plate (Greiner) for 1 hour, then purified SOS 1ExD (Flag tag, aa 564-1049) and BODIPY™FL GTP (Invitrogen) were added to the assay wells (Final concentration: 3 nM HIS-KRAS(G12C), 2 μM SOS1 ExD, 80 nM BODIPY™FL GTP, 21 ng/mL MAb Anti 6HS-Tb cryptate Gold) and incubated for 4 hours at 25° C. TR-FRET signals were then read on Tecan Spark multimode microplate reader. The parameters were F486: Excitation 340 (35) nm, Emission 486 (10) nm, Lag time 100 μs, Integration time […]; F515: Excitation 340 (35) nm, Emission 515 (10) nm, Lag time […], Integration time 200 s. TR-FRET ratios for each individual wells were calculated by equation: TR-FRET ratio=(Signal F515/Signal F486)*10000. Then the data were analyzed using a 4-parameter logistic model to calculate IC50 values.

Assay [2] concerns NCI-H358 cells express KRAS G12C. The assay is described as follows: Cell growth inhibition assay (CCK-8). As to conditions: Homo sapiens, 144 h; NCI-H358, 6 days incubation. Format: cell-based. The method, then: 3. Cell Growth inhibition assay
NCI-H358 cells express KRAS G12C were cultured in RPMI 1640 medium (Gibco) containing 10% fetal bovine serum (Gibco). Cells in culture medium were plated in 96-well plates at a concentration of 3000 cells/well ([…]) and allowed to attach overnight. The next day, compounds were diluted in culture medium and added to the plates. After 6 days incubation in a 37° C./5% CO2 cell incubator, the medium was removed, then 100 μL of 1×CCK-8 (MCE) in culture medium was added in each well. The plates were incubated 1.5-2 hours in a 37° C./5% CO2 cell incubator. OD450 signals were read on Tecan Spark multimode microplate reader and analyzed using a 4-parameter logistic model to calculate IC50 values.

T1 sequence (P01116 2-185 isoform P01116-2 G12C): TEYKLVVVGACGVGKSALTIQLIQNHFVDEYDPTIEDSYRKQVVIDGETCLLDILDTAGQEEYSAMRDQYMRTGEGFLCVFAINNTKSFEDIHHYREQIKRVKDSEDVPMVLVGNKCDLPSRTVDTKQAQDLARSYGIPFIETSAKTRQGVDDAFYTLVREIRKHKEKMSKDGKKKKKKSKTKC

What is called IC50 is the point on the concentration scale where inhibition reaches its midpoint. `C=CC(=O)N1CCN(c2nc(OCCC3CCCC3N(C)C)nc3c2CCN(c2cccc4ccccc24)C3)CC1CC#N` (stereo not drawn) [Compound 21, 2-(1-acryloyl-4-(2-(2-(2-(dimethylamino)cyclopentyl)ethoxy)-7-(naphthalen-1-yl)-5,6,7,8-tetrahydropyrido[3,4-d]pyrimidin-4-yl)piperazin-2-yl)acetonitrile]: the 50% inhibitory concentration (IC50) in assay [1] was greater than 1000 nM.
Consider `C=CC(=O)N1CCN(c2nc(OC3CCCC3N3CCN(C)CC3)nc3c2CCN(c2cccc4ccccc24)C3)CC1CC#N` (stereo not drawn) [Compound 16, 2-(1-acryloyl-4-(2-((2-(4-methylpiperazin-1-yl)cyclopentyl)oxy)-7-(naphthalen-1-yl)-5,6,7,8-tetrahydropyrido[3,4-d]pyrimidin-4-yl)piperazin-2-yl)acetonitrile], for which, in assay [1], the IC50 is 7060 nM.
For the compound `C=C(F)C(=O)N1CCN(c2nc(OCC3(CN4CCC(F)(F)C4)CC3)nc3c2CCN(c2cccc4cccc(C)c24)C3)CC1CC#N` (stereo not drawn) [Compound 81, 2-(4-(2-((1-((3,3-difluoropyrrolidin-1-yl)methyl)cyclopropyl)methoxy)-7-(8-methylnaphthalen-1-yl)-5,6,7,8-tetrahydropyrido[3,4-d]pyrimidin-4-yl)-1-(2-fluoroacryloyl)piperazin-2-yl)acetonitrile], the IC50 on KRAS G12C is greater than 500 nM.
On to `C=CC(=O)N1CCN(c2nc(OCC3(N(C)C)CCC3)nc3c2CCN(c2cccc4ccccc24)C3)CC1CC#N` (stereo not drawn) [Compound 9, 2-(1-acryloyl-4-(2-((1-(dimethylamino)cyclobutyl)methoxy)-7-(naphthalen-1-yl)-5,6,7,8-tetrahydropyrido[3,4-d]pyrimidin-4-yl)piperazin-2-yl)acetonitrile], for which the IC50 in assay [1] was determined as 1150 nM; in assay [2] it was 888 nM.
For the compound `C/C=C/C(=O)N1CCN(c2nc(OCC3(CN(C)C)CC3)nc3c2CCN(c2cccc(C)c2C)C3)CC1CC#N` (stereo not drawn) [Compound 82, (E)-2-(1-(but-2-enoyl)-4-(2-((1-((dimethylamino)methyl)cyclopropyl)methoxy)-7-(2,3-dimethylphenyl)-5,6,7,8-tetrahydropyrido[3,4-d]pyrimidin-4-yl)piperazin-2-yl)acetonitrile], the IC50 in assay [1] is greater than 500 nM; at KRAS G12C it was 211 nM.
Take `C=CC(=O)N1CCN(c2nc(OC3CCC(N(C)C)C3)nc3c2CCN(c2cccc4ccccc24)C3)CC1CC#N` (stereo not drawn) [Compound 13, 2-(1-acryloyl-4-(2-((3-(dimethylamino)cyclopentyl)oxy)-7-(naphthalen-1-yl)-5,6,7,8-tetrahydropyrido[3,4-d]pyrimidin-4-yl)piperazin-2-yl)acetonitrile]: the IC50 in assay [1] stood at 1210 nM; at KRAS G12C, 684 nM.
Take `C=CC(=O)N1CCN(c2nc(OCC3CCC(N(C)C)C3)nc3c2CCN(c2cccc(F)c2Cl)C3)CC1CC#N` (stereo not drawn) [Compound 29, 2-(1-acryloyl-4-(7-(2-chloro-3-fluorophenyl)-2-((3-(dimethylamino)cyclopentyl)methoxy)-5,6,7,8-tetrahydropyrido[3,4-d]pyrimidin-4-yl)piperazin-2-yl)acetonitrile]: in assay [1], the IC50 is greater than 1000 nM.
Take `C=CC(=O)N1CCN(c2nc(OCC3CC3CN(C)C)nc3c2CCN(c2cccc4ccccc24)C3)CC1CC#N` (stereo not drawn) [Compound 19, 2-(1-acryloyl-4-(2-((2-((dimethylamino)methyl)cyclopropyl)methoxy)-7-(naphthalen-1-yl)-5,6,7,8-tetrahydropyrido[3,4-d]pyrimidin-4-yl)piperazin-2-yl)acetonitrile]: the IC50 in assay [1] turned out to be 748 nM; on KRAS G12C, 372 nM.
Consider `C=CC(=O)N1CCN(c2nc(OCC3(CN(C)C)CC3)nc3c2CCN(c2cccc4ccn(C)c(=O)c24)C3)CC1CC#N` (stereo not drawn) [Compound 2, 2-(1-acryloyl-4-(2-((1-((dimethylamino)methyl)cyclopropyl)methoxy)-7-(2-methyl-1-oxo-1,2-dihydroisoquinolin-8-yl)-5,6,7,8-tetrahydropyrido[3,4-d]pyrimidin-4-yl)piperazin-2-yl)acetonitrile], for which the IC50 at KRAS G12C is greater than 500 nM.
Take `C=C(F)C(=O)N1CCN(c2nc(OCC3(CN(C)C)CC3)nc3c2CCN(c2cccc(C)c2C)C3)CC1CC#N` (stereo not drawn) [Compound 80, 2-(4-(2-((1-((dimethylamino)methyl)cyclopropyl)methoxy)-7-(2,3-dimethylphenyl)-5,6,7,8-tetrahydropyrido[3,4-d]pyrimidin-4-yl)-1-(2-fluoroacryloyl)piperazin-2-yl)acetonitrile]: the concentration for half-maximal inhibition (IC50) was greater than 500 nM in assay [1] and 285 nM at KRAS G12C.
The compound `C=CC(=O)N1CCN(c2nc(OCC3(N4CCCC4)CC3)nc3c2CCN(c2cccc4ccccc24)C3)CC1CC#N` (stereo not drawn) [Compound 32, 2-(1-acryloyl-4-(7-(naphthalen-1-yl)-2-((1-(pyrrolidin-1-yl)cyclopropyl)methoxy)-5,6,7,8-tetrahydropyrido[3,4-d]pyrimidin-4-yl)piperazin-2-yl)acetonitrile] came in with an IC50 in assay [2] of 696 nM.
As to `C=CC(=O)N1CCN(c2nc(OCC3(CN(C)C)CC3)nc3c2CCN(c2cccc4c2OCC4)C3)CC1CC#N` (stereo not drawn) [Compound 53, 2-(1-acryloyl-4-(7-(2,3-dihydrobenzofuran-7-yl)-2-((1-((dimethylamino)methyl)cyclopropyl)methoxy)-5,6,7,8-tetrahydropyrido[3,4-d]pyrimidin-4-yl)piperazin-2-yl)acetonitrile], the figures for the IC50 (in assay [1]; at KRAS G12C) were greater than 500 nM and 174 nM, respectively.
In the case of `C=CC(=O)N1CCN(c2nc(OC3CCCCC3N(C)C)nc3c2CCN(c2cccc4ccccc24)C3)CC1CC#N` (stereo not drawn) [Compound 11, 2-(1-acryloyl-4-(2-((2-(dimethylamino)cyclohexyl)oxy)-7-(naphthalen-1-yl)-5,6,7,8-tetrahydropyrido[3,4-d]pyrimidin-4-yl)piperazin-2-yl)acetonitrile], the IC50 in assay [1] is 9860 nM.
Turning to `C=CC(=O)N1CCN(c2nc(O[C@H]3CCCC[C@@H]3N(C)C)nc3c2CCN(c2cccc4ccccc24)C3)CC1CC#N` (stereo partly drawn) [Compound 60, 2-(1-acryloyl-4-(2-(((1S,2S)-2-(dimethylamino)cyclohexyl)oxy)-7-(naphthalen-1-yl)-5,6,7,8-tetrahydropyrido[3,4-d]pyrimidin-4-yl)piperazin-2-yl)acetonitrile], the concentration for half-maximal inhibition (IC50) in assay [1] worked out at 7120 nM.
Take `C=CC(=O)N1CCN(c2nc(OCC3(CN(C)C)CC3)nc3c2CCN(c2c(N)cccc2F)C3)CC1CC#N` (stereo not drawn) [Compound 55, 2-(1-acryloyl-4-(7-(2-amino-6-fluorophenyl)-2-((1-((dimethylamino)methyl)cyclopropyl)methoxy)-5,6,7,8-tetrahydropyrido[3,4-d]pyrimidin-4-yl)piperazin-2-yl)acetonitrile]: the half-maximal inhibitory concentration (IC50) on KRAS G12C is greater than 500 nM.
Take `C=CC(=O)N1CCN(c2nc(OCC3(CN(C)C)CC3)nc3c2CCN(c2cccc4scnc24)C3)CC1CC#N` (stereo not drawn) [Compound 52, 2-(1-acryloyl-4-(7-(benzo[d]thiazol-4-yl)-2-((1-((dimethylamino)methyl)cyclopropyl)methoxy)-5,6,7,8-tetrahydropyrido[3,4-d]pyrimidin-4-yl)piperazin-2-yl)acetonitrile]: the IC50 is greater than 500 nM in assay [1] and 485 nM on KRAS G12C.
Regarding `C=CC(=O)N1CCN(c2nc(O[C@H]3CC[C@H](N(C)C)CC3)nc3c2CCN(c2cccc4ccccc24)C3)CC1CC#N` (stereo partly drawn) [Compound 1, 2-(1-acryloyl-4-(2-(((1r,4r)-4-(dimethylamino)cyclohexyl)oxy)-7-(naphthalen-1-yl)-5,6,7,8-tetrahydropyrido[3,4-d]pyrimidin-4-yl)piperazin-2-yl)acetonitrile], the IC50 in assay [1] worked out at 3200 nM.
